Measurements taken from patent US20170049678A1, “COMBINATION OF A HYALURONIC ACID AND OF A SULPHATED POLYSACCHARIDE” (PIERRE FABRE DERMO-COSMETIQUE, priority 2014, published 2017).

System: Normal human fibroblasts (NHF)
Test: Fibroblast proliferation by BrdU incorporation
Assay type: cell-based
Settings: single agent; Ascophyscient 10 and 100 μg/ml, sodium hyaluronate 100 and 1000 μg/ml; 44 hours, DMEM with 3% FCS; FIG. 2
Method: The technique used is that of incorporation of a nucleotide, 5-bromo-2′-deoxyuridine (BrdU), a thymidine analog, in the DNA of S-phase cells, at 37° C. This technique makes it possible to quantify cells of which the advance in the cell cycle is characteristic of a proliferating cell (S-phase or DNA synthesis phase). Normal human fibroblasts (NHF), isolated from surgical waste skin, are usually cultivated in Dulbecco's modified Eagle's medium (DMEM) with 10% fetal calf serum (FCS). In our experimental conditions, dilutions of the products to be tested are prepared in DMEM with 3% FCS. The cells are first deprived of FCS for 24 hours to stop cell multiplication before incubating them in the presence of the molecules to be evaluated for 44 hours at 37° C., in a 5% CO2 atmosphere. BrdU incorporation, proportional to cell proliferation rate, is evaluated by an anti-BrdU antibody system (Roche Applied Science). The corresponding absorbance (OD) is measured at 450 nm. This datum is thus proportional to cell proliferation rate. […] Analysis of the Results: • expressed as OD (proportional to BrdU incorporation and thus to cell proliferation rate) • expressed as percent stimulation: [formula] • expressed as standard error of the mean: SEM=standard deviation (SD)/√n Statistical analyses using unpaired bilateral Student's t-test were carried out on the raw OD values. […]

## sodium hyaluronate
  fibroblast proliferation (BrdU incorporation, OD 450 nm): moderate effect on fibroblast proliferation
